Reference: patent US10653699B2, “Controlled-release tozadenant formulations” (BIOTIE THERAPIES, INC., priority 2015, dated 2020)

How the values were obtained:
[1] = Clinical study of immediate-release tozadenant: treatment-emergent adverse events, Cmax and Css (Table 18); format: in vivo, human; details: for Total AEs/subject / concentration at 14 day / Cmax: immediate-release formulation; for Total Number of AEs: immediate-release formulation (N = 6); for concentration at 14 day / Cmax: human, plasma; for Cmax: read-out: Cmax (ng/mL) at Day 14
Description: Advantages of controlled-release formulations compared to immediate-release formulations include: lower incidence of adverse events; improved tolerability; reduced frequency of dosing; and improved compliance due to reduced frequency of dosing.
An example of an efficacious dose of tozadenant is 120 mg of an immediate-release formulation administered twice a day (BID). […] Thus, a CR formulation could be designed to achieve an efficacious Css lower than the plasma levels (Cmax) that result in AEs. An efficacious CR formulation would preferably result in a Css in the range of 0.5-3.0 μg/mL.

[2] = Treatment-emergent adverse events and tozadenant plasma Cmax by dose in patients (Table 19); format: in vivo, human; details: for Cmax at 6 week / Cmax: human, oral; for Cmax at 6 week: maximum plasma concentration in group of 63-75 patients, time since last dose unknown; for Cmax: plasma, read-out: Cmax (ng/mL) at ~5 hr postdose at Day 1
Source text: Table 19 summarizes the dose response of AEs observed in patients taking tozadenant alongside the plasma Cmax. A clear trend of increasing AEs and discontinuation of therapy is seen with doses that result in higher tozadenant Cmax. A controlled-release formulation can be used to achieve the drug levels (Css) that are therapeutically effective while avoiding the high plasma Cmax and AEs associated with high doses of an IR formulation.

[3] = Physical characterization of tozadenant API; format: physicochemical
Source text: The active pharmaceutical ingredient (API) was very fine, with ˜60% fines. […] The observed loss upon drying indicated a low amount of water and volatile matter in API.

COc1ccc(N2CCOCC2)c2sc(NC(=O)N3CCC(C)(O)CC3)nc12 [tozadenant, 4-hydroxy-4-methyl-piperidine-1-carboxylic acid (4-methoxy-7-morpholin-4-yl-benzothiazol-2-yl)-amide]
Css ([1]; 120 mg of an immediate-release formulation administered twice a day (BID)): about 2.4 μg/mL | Total AEs/subject ([1]; 120 BID): 0.7 | Total Number of AEs ([1]; 120 BID): 4 | Total AEs/subject ([1]; 240 BID): 4.0 | Total Number of AEs ([1]; 240 BID): 24 | Total AEs/subject ([1]; 240 QD): 2.7 | Total Number of AEs ([1]; 240 QD): 16 | Total AEs/subject ([1]; 480 QD): 5.0 | Total Number of AEs ([1]; 480 QD): 30 | concentration at 14 day ([1]; 120 mg, 120 BID): 2360 ng/mL | Cmax ([1]; 120 mg, 120 BID): 2970 ng/mL | concentration at 14 day ([1]; 240 mg, 240 BID): 4810 ng/mL | Cmax ([1]; 240 mg, 240 BID): 6160 ng/mL | concentration at 14 day ([1]; 240 mg, 240 QD): 2080 ng/mL | Cmax ([1]; 240 mg, 240 QD): 3440 ng/mL | concentration at 14 day ([1]; 480 mg, 480 QD): 3500 ng/mL | Cmax ([1]; 480 mg, 480 QD): 5120 ng/mL | Patients discontinuing due to AEs, % ([2]; 60 mg BID): 8% | Patients with no AE, % ([2]; 60 mg BID): 28% | Patients with ≥ 1 AE related to study drug, % ([2]; 60 mg BID (N = 85)): 44% | Patients discontinuing due to AEs, % ([2]; 120 mg BID): 12% | Patients with no AE, % ([2]; 120 mg BID): 26% | Patients with ≥ 1 AE related to study drug, % ([2]; 120 mg BID (N = 82)): 55% | Patients discontinuing due to AEs, % ([2]; 180 mg BID): 12% | Patients with no AE, % ([2]; 180 mg BID): 21% | Patients with ≥ 1 AE related to study drug, % ([2]; 180 mg BID (N = 85)): 55% | Patients discontinuing due to AEs, % ([2]; 240 mg BID): 20% | Patients with no AE, % ([2]; 240 mg BID): 18% | Patients with ≥ 1 AE related to study drug, % ([2]; 240 mg BID (N = 84)): 63% | Cmax at 6 week ([2]; 60 mg BID): 2570 ng/mL | Cmax ([2]; 60 mg BID): 424 ng/mL | Cmax at 6 week ([2]; 120 mg BID): 3910 ng/mL | Cmax ([2]; 120 mg BID): 680 ng/mL | Cmax at 6 week ([2]; 180 mg BID): 5460 ng/mL | Cmax ([2]; 180 mg BID): 999 ng/mL | Cmax at 6 week ([2]; 240 mg BID): 6630 ng/mL | Cmax ([2]; 240 mg BID): 1150 ng/mL | Bulk density [3]: 0.1948 g/mL | Compressibility index [3]: 35.065 | Fines Portion (# 60 pass portion) [3]: 60.00% | Granular Portion (# 60 Retain portion) [3]: 40.00% | Hausner ratio [3]: 1.5406 | Tapped density [3]: 0.3000 g/mL | Particle size distribution (% Retention) ([3]; ASTM # 20 mesh (841μ)): 0.00% | Particle size distribution (% Retention) ([3]; ASTM # 40 mesh (420μ)): 7.00% | Particle size distribution (% Retention) ([3]; ASTM # 60 mesh (250μ)): 33.00% | Particle size distribution (% Retention) ([3]; ASTM # 80 mesh (177μ)): 18.00% | Particle size distribution (% Retention) ([3]; ASTM # 100 mesh (149μ)): 16.00% | Particle size distribution (% Retention) ([3]; ASTM # 200 mesh (75μ)): 21.00% | Particle size distribution (% Retention) ([3]; Pan): 5.00% | Loss on drying ([3]; at 105° C. for 5 minutes): 0.400 % w/w
